Patent publication US11970440B1, “8-(3-chlorobenzylideneamino)naphthalene-1,3-disulfonic acid as an antioxidant compound” (KING FAISAL UNIVERSITY, priority 2023, dated 2024)

Assay: DPPH (2,2-diphenyl-1-picrylhydrazyl) radical scavenging antioxidant test in vitro
Format: biochemical
Conditions: 517 nm; for Inhibition (radical scavenging inhibition): 0.2 mL DPPH (0.75 mM), compound 3 μM in ethanol, 30 min incubation in the dark
Description: The antioxidant properties of the 8-(3-chlorobenzylideneamino)naphthalene-1,3-disulfonic acid were studied by adding 0.2 mL DPPH (0.75 mM)) to compound 8-(3-chlorobenzylideneamino)naphthalene-1,3-disulfonic acid (III) (3 μM) in ethanol. After 30 min of incubation in the dark, the absorbance was read against a blank at 517 nm. Ascorbic acid (vitamin C) was used as standard antioxidants (positive control). A blank sample was prepared by 0.2 ml of DPPH in 3 ml ethanol. A negative control sample was run using ethanol instead of the sample. The radical scavenging inhibition was calculated using the following equation: […]
The antioxidant activity for the synthesized compound is listed in Table 1, using Vitamin C as a reference.

SMILES: O=S(=O)(O)c1cc(S(=O)(=O)O)c2c(/N=C/c3cccc(Cl)c3)cccc2c1 [Product III, 8-(3-chlorobenzylideneamino)naphthalene-1,3-disulfonic acid]
- Inhibition (radical scavenging inhibition): 50%
- antioxidant potential in DPPH test, in words (DPPH in vitro test, vitamin C as positive control): high potential as an antioxidant compared to vitamin C

SMILES: O=C1O[C@H]([C@@H](O)CO)C(O)=C1O [vit c, Ascorbic acid, reference compound]
- Inhibition (radical scavenging inhibition): 74%
